Measurements: patent publication US20240287138A1, “CYCLIC PEPTIDES FOR INHIBITING TNF RECEPTOR 1 ACTIVITY” (Merck Sharp & Dohme LLC, priority 2023, published 2024)
Numbered stars: 1 amine (or outer) side, 2 acyl side, 3 side chain; on linkers, the order of the positions; unused ones are H or OH. Bridge positions count the residues as written; N and C are the ends. Square brackets hold non-standard residues; d marks the D form. Peptide text beside a SMILES is read from it. * marks the point of attachment. Trp(βS-Me,7-OMe) = COc1cccc2c([C@H](C)[C@H](N)C(=O)O)c[nH]c12; Morpholine(3S-CO,6,6-Me2) = CC1(C)CN[C@H](C(=O)O)CO1; Trp(7-CN) = N#Cc1cccc2c(C[C@H](N)C(=O)O)c[nH]c12; Trp(7-Cl) = N[C@@H](Cc1c[nH]c2c(Cl)cccc12)C(=O)O; Phe(3-CONH2) = NC(=O)c1cccc(C[C@H](N)C(=O)O)c1; Phe(4-CONH2) = NC(=O)c1ccc(C[C@H](N)C(=O)O)cc1; Phe(4-COOH) = N[C@@H](Cc1ccc(C(=O)O)cc1)C(=O)O; 4Pal(3S-Me) = C[C@@H](c1ccncc1)[C@H](N)C(=O)O; Trp(7-aza) = N[C@@H](Cc1c[nH]c2ncccc12)C(=O)O; Pip(5R-OH) = O=C(O)[C@@H]1CC[C@@H](O)CN1; X1 = O=C([C@@H]1CC[C@H](N[*:1])C1)[*:2]; Isoxazole(3-carbonyl) = O=C(c1ccon1)*; Pip(4-aza) = O=C(O)[C@@H]1CNCCN1; hPhe = N[C@@H](CCc1ccccc1)C(=O)O; 4Pal = N[C@@H](Cc1ccncc1)C(=O)O; NMeE = CN[C@@H](CCC(=O)O)C(=O)O; dHyp = O=C(O)[C@H]1C[C@H](O)CN1; Ahp(2) = CCCCC[C@H](N)C(=O)O; αMeS = C[C@](N)(CO)C(=O)O; Carboxymethyl = O=C(O)C*; Nle = CCCC[C@H](N)C(=O)O; Dab = NCC[C@H](N)C(=O)O; Sar = CNCC(=O)O

Key:
[1] = molecular target: T1, TNFα-induced NF-κB signal transduction pathway (TNFR1 signaling) in THP-1 cells (Homo sapiens, UniProt P19438); assay: THP-1 Lucia NF-κB reporter cell assay, inhibition of TNFα-induced NF-κB signaling; assay type: cell-based; conditions: THP-1 NF-κB Lucia reporter cells, 10 ng/mL TNFα, 16-18 h, secreted luciferase; read-out: THP-1 IC50
T1 sequence (P19438 30-455): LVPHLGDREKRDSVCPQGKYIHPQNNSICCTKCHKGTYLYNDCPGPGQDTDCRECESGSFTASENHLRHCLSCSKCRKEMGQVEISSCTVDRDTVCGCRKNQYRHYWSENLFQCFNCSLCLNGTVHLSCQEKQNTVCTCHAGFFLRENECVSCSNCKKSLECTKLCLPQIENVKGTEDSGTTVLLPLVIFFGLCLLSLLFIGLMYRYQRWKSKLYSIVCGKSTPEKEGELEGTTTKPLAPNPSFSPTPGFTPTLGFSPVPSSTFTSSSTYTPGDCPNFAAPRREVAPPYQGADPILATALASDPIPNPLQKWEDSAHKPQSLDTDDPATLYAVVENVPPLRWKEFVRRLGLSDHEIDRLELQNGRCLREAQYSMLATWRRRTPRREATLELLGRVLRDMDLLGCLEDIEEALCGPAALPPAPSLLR
Summary of the method: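 THP-1 Lucia NF-κB cells, 20k/well, no selection antibiotics; peptide pre-inc 1 h 37 °C; + recombinant human TNFα 10 ng/mL final; o.n.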

[2] = molecular target: T2, human TNFR1 extracellular domain (ECD) protein (Homo sapiens, UniProt P19438); assay: SPR binding affinity to captured human TNFR1 ECD
T2 construct: HRV 3C protease cleavage site (C); 6His (C, cleaved yes); made in house; host or cells: Sf21 insect cells (baculovirus), secreted
T2 sequence (P19438 30-211): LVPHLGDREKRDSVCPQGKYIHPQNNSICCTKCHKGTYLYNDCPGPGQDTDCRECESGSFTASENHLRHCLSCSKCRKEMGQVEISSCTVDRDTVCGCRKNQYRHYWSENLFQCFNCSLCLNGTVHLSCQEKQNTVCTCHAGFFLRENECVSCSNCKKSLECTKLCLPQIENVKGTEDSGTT
Summary of the method: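 SPR kinetics: peptides over captured avi-biotinylated receptor ECDs, TNFR1 for affinity, TNFR2 run in parallel for off-target binding. Running buffer HEPES pH 7.4 with 150 mM NaCl, 3 mM EDTA, 0.05% P20, 2% DMSO; surface regenerated between analytes. Affinity derived from kon/koff.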

SMILES: COc1cccc2c([C@H](C)[C@@H]3NC(=O)CN(C)C(=O)[C@H](Cc4cccc(C(N)=O)c4)NC(=O)[C@H](Cc4ccc(C(N)=O)cc4)NC(=O)[C@](C)(CO)NC(=O)[C@H](Cc4c[nH]c5c(Cl)cccc45)NC(=O)[C@H](Cc4ccncc4)NC(=O)[C@H](CC(N)=O)NC(=O)[C@H]4C[C@H](O)CN4C(=O)[C@H](Cc4c[nH]c5ccccc45)NC(=O)[C@@H]4CC[C@@H](O)CN4C(=O)[C@H](Cc4ccncc4)NC(=O)[C@H](CCNC(=O)c4ccon4)NC(=O)[C@@H]4CC[C@@H](C4)NC3=O)c[nH]c12 [SEQ ID NO. 169] (cyclo([4Pal][Trp(7-Cl)][αMeS][Phe(4-CONH2)][Phe(3-CONH2)][Sar][Trp(βS-Me,7-OMe)][X1][Dab](Isoxazole(3-carbonyl))[4Pal][Pip(5R-OH)]W[dHyp]N))
- IC50 [1]: 600 pM
- Kd [2]: 80 pM

SMILES: CCCC[C@@H]1NC(=O)CSC[C@@H](C(N)=O)NC(=O)[C@H]([C@@H](C)c2c[nH]c3c(OC)cccc23)NC(=O)CN(C)C(=O)[C@H](Cc2ccc(O)cc2)NC(=O)[C@H](Cc2ccc(C(=O)O)cc2)NC(=O)[C@](C)(CO)NC(=O)[C@H](Cc2c[nH]c3c(Cl)cccc23)NC(=O)[C@H](Cc2ccncc2)NC(=O)[C@H](CC(N)=O)NC(=O)[C@H](CCC(=O)O)N(C)C(=O)[C@H](Cc2c[nH]c3ncccc23)NC(=O)[C@@H]2CNCCN2C(=O)[C@H](CCc2ccccc2)NC1=O [SEQ ID NO. 172] ({CH2CO}-[Nle][hPhe][Pip(4-aza)][Trp(7-aza)][NMeE]N[4Pal][Trp(7-Cl)][αMeS][Phe(4-COOH)]Y[Sar][Trp(βS-Me,7-OMe)]C-NH2; thioether N-14)
- IC50 [1]: 3900 pM
- Kd [2]: 200 pM

SMILES: CCCCC[C@@H]1NC(=O)[C@@H]2CC[C@@H](C2)NC(=O)[C@H]([C@@H](C)c2c[nH]c3c(OC)cccc23)NC(=O)CN(C)C(=O)[C@H](Cc2cccc(C(N)=O)c2)NC(=O)[C@H](Cc2ccc(C(N)=O)cc2)NC(=O)[C@](C)(CO)NC(=O)[C@H](Cc2c[nH]c3c(C#N)cccc23)NC(=O)[C@H](Cc2ccncc2)NC(=O)[C@H](CC(N)=O)NC(=O)[C@H]2C[C@H](O)CN2C(=O)[C@H](Cc2c[nH]c3ccccc23)NC(=O)[C@@H]2CNCCN2C(=O)[C@H](Cc2ccncc2)NC1=O [SEQ ID NO. 174] (cyclo([4Pal][Trp(7-CN)][αMeS][Phe(4-CONH2)][Phe(3-CONH2)][Sar][Trp(βS-Me,7-OMe)][X1][Ahp(2)][4Pal][Pip(4-aza)]W[dHyp]N))
- IC50 [1]: 700 pM
- Kd [2]: 10 pM

SMILES: CCCC[C@@H]1NC(=O)CSC[C@@H](C(N)=O)NC(=O)[C@H]([C@@H](C)c2c[nH]c3c(OC)cccc23)NC(=O)CN(C)C(=O)[C@H](Cc2ccc(O)cc2)NC(=O)[C@H](Cc2ccc(C(=O)O)cc2)NC(=O)[C@](C)(CO)NC(=O)[C@H](Cc2c[nH]c3c(Cl)cccc23)NC(=O)[C@H](Cc2ccc(OCC(=O)O)cc2)NC(=O)[C@H](CC(N)=O)NC(=O)[C@H](CCC(=O)O)N(C)C(=O)[C@H](Cc2c[nH]c3ccccc23)NC(=O)[C@@H]2COC(C)(C)CN2C(=O)[C@H](Cc2ccncc2)NC1=O [SEQ ID NO. 179] ({CH2CO}-[Nle][4Pal][Morpholine(3S-CO,6,6-Me2)]W[NMeE]NY(Carboxymethyl)[Trp(7-Cl)][αMeS][Phe(4-COOH)]Y[Sar][Trp(βS-Me,7-OMe)]C-NH2; thioether N-14)
- IC50 [1]: 2400 pM
- Kd [2]: 140 pM

SMILES: CCCC[C@@H]1NC(=O)CSC[C@@H](C(N)=O)NC(=O)[C@H]([C@@H](C)c2c[nH]c3c(OC)cccc23)NC(=O)CN(C)C(=O)[C@H](Cc2ccc(O)cc2)NC(=O)[C@H](Cc2ccc(C(=O)O)cc2)NC(=O)[C@](C)(CO)NC(=O)[C@H](Cc2c[nH]c3c(Cl)cccc23)NC(=O)[C@H](Cc2ccncc2)NC(=O)[C@H](CC(N)=O)NC(=O)[C@H](CCC(=O)O)N(C)C(=O)[C@H](Cc2c[nH]c3ncccc23)NC(=O)[C@H](CO)NC(=O)[C@H]([C@@H](C)c2ccncc2)NC1=O [SEQ ID NO. 180] ({CH2CO}-[Nle][4Pal(3S-Me)]S[Trp(7-aza)][NMeE]N[4Pal][Trp(7-Cl)][αMeS][Phe(4-COOH)]Y[Sar][Trp(βS-Me,7-OMe)]C-NH2; thioether N-14)
- IC50 [1]: 2000 pM
- Kd [2]: 50 pM
